# US20050043369A1, “Bactericidal antimicrobial methods and compositions for use in treating gram positive infections” (Protez Pharmaceuticals Inc., priority 2000, published 2005)
# Like-named read-outs stand apart in the source and are kept apart here.
# Columns and labels:
# S. pneumoniae = experiment: Bactericidal activity (MBC) of translational inhibitors with or without INF 401 in S. pneumoniae; type: cell-based, Streptococcus pneumoniae; conditions: antibiotic alone
# Text: It would be desirable that an antibiotic potentiator of the present invention is active not only in S. aureus but also in other bacterial pathogens. The inventors have begun studies to investigate whether INF 401 can also potentiate the activity of translational inhibitors in another Gram positive pathogen, S. pneumoniae.
# S. aureus SA1199 [1] = experiment: Checkerboard two-fold broth microdilution, MIC and MBC; type: cell-based, Staphylococcus aureus; conditions: Table 2, plus 10 μg/ml INF 402, unit not given
# S. aureus SA1199 [2] = experiment: as above; type: cell-based, Staphylococcus aureus; conditions: for MBC^b = MBC in the presence of 5 μg/ml of INF 401: plus 5 μg/ml INF 401
# Experimental: Checkerboard titration was performed with INF 401 and erythromycin to quantitate the effects of the combination on Staphylococcal growth using two-fold serial broth microdilution. After overnight incubation, cells were transferred to fresh medium, as described above, to determine those combinations that were bactericidal to S. aureus. […] Although not determined according to NCCLS recommended procedures ([…]), the inventors considered this the Minimal Bactericidal Concentration (MBC).
# The inventors next evaluated whether INF 401 was bactericidal in combination with other protein synthesis inhibitors which are bacteriostatic to S. aureus. Checkerboard studies were performed with two-fold dilutions of each antibiotic in combination with INF 401 using the assay described above in Example 2. After overnight incubation the MIC of each antibiotic was determined by visualization of bacterial growth. […] The MBC of each antibiotic was determined as described in Example 2 in the absence or presence of INF 401.
# S. aureus (SA1199) = experiment: Time kill studies (CFU counts); type: cell-based, Staphylococcus aureus
# Experimental: FIG. 5A, FIG. 5B and FIG. 5C. […]
# The initial inoculum number was determined by plating an appropriate dilution on LB agar plates and determining the number of colony forming units (CFUs). At different time points an aliquot was withdrawn from each tube and cell viability was determined by plating an appropriate dilution and counting CFUs after overnight incubation.
# S. aureus strain SA1199 = experiment: Screening and titration of potentiators with erythromycin (4 μg/ml), viability read by transfer to fresh medium; type: cell-based, Staphylococcus aureus; conditions: for lowest concentration at which the potentiator is active (titration in the presence of erythromycin): erythromycin 4 μg/ml, S. aureus SA1199; for effect on viability of S. aureus in combination with a bacteriostatic concentration of erythromycin: library screen hit; for Activity (minimal concentration required to kill 99.9% of S. aureus): in the presence of 4 μg/ml erythromycin
# Experimental: In an exemplary screening assay, in order to identify a candidate acyl hydrazide, oxy amide or 8-hydroxy quinoline composition as an antibacterial agent potentiator, the S. aureus strain SA1199 may be used. The procedure for screening is as follows: logarithmically growing S. aureus SA1199 are inoculated to a final OD600 of 0.002 into 150 μl of LB medium containing a bacteriostatic concentration of an antimicrobial agent for that strain, for example, erythromycin (4 μg/ml) at four times the Minimal Inhibitory
# Concentration (MIC). […] In preliminary studies the inventors determined that under these conditions up to 2000 viable cells were transferred after incubation with erythromycin. As confirmed by broth microdilution, at least a 1000-fold reduction in viability was required to see no visible growth after 20 hours. Acyl hydrazide, oxy amide or 8-hydroxy quinoline antibiotic potentiators may be identified as those compounds that increase the bactericidal effect of the erythromycin.
# The macrolide erythromycin was chosen in the initial screen for two reasons: first, its mechanism of inhibition of protein synthesis is well characterized and second, as a macrolide, erythromycin is representative of an expanding class of agents which includes the second most prescribed antibiotic, azithromycin.
# In preliminary studies the inventors determined that under these conditions up to 2000 viable cells were transferred after incubation with erythromycin. As confirmed by broth microdilution, at least a 1000-fold reduction in viability was required to see no visible growth after 20 h.
# Next the activity of the hit compounds was compared by titration of the compounds in the presence of erythromycin at 4 μg/ml as described above.
# (§1) Activity of the compound is depicted as the minimal concentration required to kill 99.9% of S. aureus in the presence of 4 μg/ml erythromycin.
# S. aureus ATCC 29213 = experiment: MBEC assay system, checkerboard: planktonic MIC and biofilm MBEC; type: cell-based, Staphylococcus aureus; conditions: INF 401 at 0.3 μg/ml where in label
# Experimental: These studies were performed via the method of Dr. Howard Ceri (University of Calgary), who recently developed a method for the routine determination of the antibiotic susceptibility of biofilms. To date, the inventors have tested the effect of the combination of INF 401 on the ability of either clindamycin or rifampin to eradicate S. aureus biofilms in vitro. S. aureus ATCC 29213 was selected for the study as previous studies of this isolate as a biofilm had been conducted and the isolate served as a quality assurance organism for NCCLS standardization of antibiotic testing. Biofilms were formed as previously described for this organism (Ceri et al., 1999) using the MBEC™ assay system. Checkerboard studies were performed with each antibiotic versus INF 401.
# S. aureus SA 29213 = experiment: 55Fe transport assay (intracellular iron accumulation); type: cell-based, Staphylococcus aureus; conditions: compound at 2 μg/ml; S. aureus SA 29213
# Experimental: Next, investigated was whether INF 401 affects intracellular iron accumulation. An ^55Fe transport assay (modified from Sebulsky, 2000) was used to examine the ability of INF 401 to transport iron inside the cell. Briefly, exponentially growing cells were diluted to OD600 0.1 in LB, incubated with ^55FeCl3 for 30 min at 37° C., washed and counted in scintillation fluid using the tritium channel of a scintillation system. […] However, the presence of INF 401 in either the absence or presence of antibiotic led to a dramatic increase in iron accumulation (209,215 and 231,621 DPM, respectively).
# as §1
# [3] = Staphylococcus aureus, SA1199, read-out: MBC^a = MBC in the absence of INF 401, Table 1, S. aureus SA1199, antibiotic alone, unit inferred
# [4] = Staphylococcus aureus, SA1199, read-out: MBC^a = MBC in the absence of INF 401, Table 2, S. aureus SA1199, antibiotic alone, unit inferred
# [5] = Table 1, S. aureus SA1199, unit not given
# [6] = Table 2, S. aureus SA1199, unit inferred
structure (smiles),measurement,setting,value
CC[C@H]1OC(=O)[C@H](C)[C@@H](O[C@H]2C[C@@](C)(OC)[C@@H](O)[C@H](C)O2)[C@H](C)[C@@H](O[C@@H]2O[C@H](C)C[C@H](N(C)C)[C@H]2O)[C@](C)(O)C[C@@H](C)C(=O)[C@H](C)[C@@H](O)[C@]1(C)O [Erythromycin],bactericidal concentration in the absence of INF 401 as multiple of MIC,S. pneumoniae,1 ×MIC
same,MBC^b = MBC in the presence of 10 μg/ml of INF 402,S. aureus SA1199 [1],1
same,bactericidal concentration of antibiotic alone as multiple of MIC,"S. aureus SA1199 [2]; S. aureus, absence of INF 401",16-32 ×MIC
same,"Minimal Bactericidal Concentration (greater than 1000-fold decrease in cell viability), antibiotic alone","S. aureus SA1199 [2]; S. aureus, not by NCCLS procedure",16 to 32 µg/mL
same,MIC,"S. aureus SA1199 [2]; Staphylococcus aureus, SA1199",1 µg/mL
same,MBC,S. aureus SA1199 [2]; [3],16 to 32 µg/mL
same,MBC,S. aureus SA1199 [2]; [4],> 8 µg/mL
same,MBC^b = MBC in the presence of 5 μg/ml of INF 401,S. aureus SA1199 [2]; [5],1
same,MIC,S. aureus SA1199 [2]; [6],1 µg/mL
same,effect of single agent on growth of S. aureus in time kill study,"S. aureus (SA1199); INF 401 5 μg/ml alone, erythromycin 2×MIC alone",bacteriostatic
CC[n+]1c(-c2ccccc2)c2cc(N)ccc2c2ccc(N)cc21 [Ethidium bromide],MBC^b = MBC in the presence of 10 μg/ml of INF 402,S. aureus SA1199 [1],>128
same,MIC,"S. aureus SA1199 [2]; Staphylococcus aureus, SA1199",16 µg/mL
same,MBC,S. aureus SA1199 [2]; [3],> 128 µg/mL
same,MBC,S. aureus SA1199 [2]; [4],> 128 µg/mL
same,MBC^b = MBC in the presence of 5 μg/ml of INF 401,S. aureus SA1199 [2]; [5],>128
same,MIC,S. aureus SA1199 [2]; [6],16 µg/mL
COc1ccc(C(=O)N(O)c2ccccc2)cc1 [INF 402],lowest concentration at which the potentiator is active (titration in the presence of erythromycin),S. aureus strain SA1199,1.25 to 2.5 µg/mL
same,effect on viability of S. aureus in combination with a bacteriostatic concentration of erythromycin,S. aureus strain SA1199,reduced the viability
Cc1cc(C)c2ccc(NN)nc2c1O [INF 406],lowest concentration at which the potentiator is active (titration in the presence of erythromycin),S. aureus strain SA1199,0.6 µg/mL
same,effect on viability of S. aureus in combination with a bacteriostatic concentration of erythromycin,S. aureus strain SA1199,reduced the viability
CO[C@H]1/C=C/O[C@@]2(C)Oc3c(C)c(O)c4c(O)c(c(/C=N/N5CCN(C)CC5)c(O)c4c3C2=O)NC(=O)/C(C)=C\C=C\[C@H](C)[C@H](O)[C@@H](C)[C@@H](O)[C@@H](C)[C@H](OC(C)=O)[C@@H]1C [Rifampin],MIC,"S. aureus ATCC 29213; Staphylococcus aureus, ATCC29213, planktonic population",0.0075 µg/mL
same,MBEC,S. aureus ATCC 29213; biofilm population,>2 µg/mL
same,MIC,"S. aureus SA1199 [2]; Staphylococcus aureus, SA1199",0.009 µg/mL
same,MBC,S. aureus SA1199 [2]; [3],0.06 µg/mL
same,MBC^b = MBC in the presence of 5 μg/ml of INF 401,S. aureus SA1199 [2]; [5],0.0019
CN(C)[C@@H]1C(O)=C(C(N)=O)C(=O)[C@@]2(O)C(O)=C3C(=O)c4c(O)cccc4[C@@](C)(O)[C@H]3C[C@@H]12 [Tetracycline],bactericidal concentration in the absence of INF 401 as multiple of MIC,S. pneumoniae,4 ×MIC
same,MBC^b = MBC in the presence of 10 μg/ml of INF 402,S. aureus SA1199 [1],2
same,MBC,S. aureus SA1199 [2]; [3],8 µg/mL
same,MBC,S. aureus SA1199 [2]; [4],> 8 µg/mL
same,MBC^b = MBC in the presence of 5 μg/ml of INF 401,S. aureus SA1199 [2]; [5],0.25
same,"reduction in cell viability, antibiotic in combination with INF 401",S. aureus (SA1199); antibiotic 1×MIC + 5 μg/ml INF 401,3 log10
COc1cc(Cc2cnc(N)nc2N)cc(OC)c1OC [Trimethroprim],MBC^a = MBC in the absence of INF 401,"S. aureus SA1199 [2]; Table 1, S. aureus SA1199, antibiotic alone, unit inferred",32 µg/mL
same,MBC^b = MBC in the presence of 5 μg/ml of INF 401,S. aureus SA1199 [2]; [5],8
same,MIC,S. aureus SA1199 [2]; [5],1
CCOc1cccc(/C=N/NC(=O)Cc2ccc(C)cc2)c1O [drawing 37],^55Fe Accm.,S. aureus SA 29213,"1,200 DPM"
same,Activity (minimal concentration required to kill 99.9% of S. aureus),S. aureus strain SA1199,>10 µg/mL
CCOc1cccc(/C=N/NC(=O)Cc2ccc(C)cc2)c1O [drawing 38],^55Fe Accm.,S. aureus SA 29213,"17,400 DPM"
same,Activity (minimal concentration required to kill 99.9% of S. aureus),S. aureus strain SA1199,1.25 µg/mL
